In patent US20260325502A1, “COMPOSITION FOR PREVENTING OR TREATING CANCER PAIN” (MARUISHI PHARMACEUTICAL CO., LTD., priority 2023, published 2026):
“Also recorded” adds a separate entry of the source.

How the values were obtained:
[1] = system: cancer pain animal models; settings: pregabalin; Non-Patent Literature 2; cited from earlier work
[2] = Non-Patent Literatures 2 and 8; cited from earlier work
[3] = system: central nervous system; settings: rats; Table 2 in Non-Patent Literature 9; cited from earlier work
[4] = system: cancer pain model rats (MRMT-1 rat breast cancer cells, bone metastasis model); test: Measurement of pain threshold in bone metastasis cancer pain model rats (Dynamic Plantar Aesthesiometer); format: in vivo, Crl:CD (SD); settings: 10 mg/kg and 30 mg/kg, oral
Experimental: Five-week-old female Crl:CD (SD) SPF rats (Charles River Japan) were injected with MRMT-1 cells (rat breast cancer cells) at 3×10^4 cells/20 μL/body into the medullary cavity at the proximal end of the diaphysis of the right tibia to create a bone metastasis model (day 0). On day 10 after the transplantation of the cancer cells (day 10), the rats were divided into 4 groups of 8 rats each: a control group (with administration of distilled water (trade name: Otsuka Distilled Water) manufactured by Otsuka Pharmaceutical Factory, Inc.), a 10 mg/kg compound A administration group, a 30 mg/kg compound A administration group, and a morphine administration group, as shown in Table 1 below. On day 11 after the transplantation of the cancer cells (day 11), each drug was orally or subcutaneously administered to the rats at a dose of 2 mL/kg. The pain threshold (g) of the plantar surface of the right hind paw was measured using a Dynamic Plantar Aesthesiometer (37450, Ugo Basile) under blinded conditions 1, 3, 6, and 24 hours after the administration. The average value of the pain threshold-time area under the curve (AUC) (g·hr) for 24 hours post-administration was determined for each group.

[5] = system: mice; test: Measurement of spontaneous locomotor activity (Supermex); format: in vivo, mouse, ICR
Experimental: Five-to six-week-old male ICR-SPF mice (Japan SLC, Inc.) were divided into 5 groups of 8 mice each: a control group (with administration of distilled water (trade name: Otsuka Distilled Water) manufactured by Otsuka Pharmaceutical Factory, Inc.), two 10 mg/kg compound A administration groups, and two 30 mg/kg compound A administration groups, as shown in Table 2 below. Compound A or distilled water at a dose of 10 mL/kg was orally administered to the mice. One or three hours after the administration of compound A or distilled water, the mice were transferred to a measurement cage, and spontaneous locomotor activity was measured for 30 minutes using Supermex (registered trademark) (Muromachi Kikai Co., Ltd.).

[6] = system: rats; test: Measurement of coordinated motor ability (rotarod); format: in vivo, rat, SD
Experimental: Five- to six-week-old male SD-SPF rats (Japan SLC, Inc.) were used in this experiment. The experimental schedule included training using a rotarod (SN445, Shinano Seisakusyo) for 3 days (6 times a day), starting from 3 days before the day of administration. On the day of administration, pre-values (time to stay on the rotarod before the administration of compound A or distilled water) were measured twice, and the rats that spent 180 seconds or more on the rotarod in either of the two measurements were selected. The rats were divided into 3 groups of 6 rats each: a control group (with administration of distilled water (trade name: Otsuka Distilled Water) manufactured by Otsuka Pharmaceutical Factory, Inc.), a 10 mg/kg compound A administration group, and a 30 mg/kg compound A administration group, as shown in Table 3 below. Compound A or distilled water was orally administered to the rats at a dose of 10 mL/kg, and the time to stay on the rotarod was measured 1, 3, 6, and 24 hours after the administration under the test conditions of 10 rotations/min with a cutoff of 180 seconds.

[7] = system: serotonin 3 receptor; settings: Patent Literatures 1 and 2; cited from earlier work
[8] = summary of Experiments 1 and 2, 10 to 30 mg/kg

SMILES | effect in cancer pain animal models [1] | side effects [2] | influence on central nervous system relative to analgesic dose [3] | cancer pain threshold compared to control group ([4]; single dose, right hind paw, measured 1, 3, 6 and 24 h after administration, Dunnett's test, critical value of 1%, n = 8, FIG. 1) | pain threshold-time area under the curve (AUC) compared to subcutaneous morphine ([4]; versus morphine 3 mg/kg subcutaneous, up to 24 h after administration) | changes in spontaneous locomotor activity compared to control group ([5]; 10 mg/kg and 30 mg/kg, oral, 1 or 3 h after administration, measured for 30 min, Dunnett's test, critical value of 5%, n = 8, FIG. 2) | suppression of spontaneous locomotor activity at a dose that induces an analgesic effect [5, 8] | changes in coordinated motor ability (time to stay on the rotarod) compared to control group ([6]; 10 mg/kg and 30 mg/kg, oral, 1, 3, 6 and 24 h after administration, 10 rotations/min, cutoff 180 s, Dunnett's or Steel's test, critical value of 5%, n = 6, FIG. 3) | suppression of coordinated motor ability at a dose that induces an analgesic effect [6, 8] | activity at serotonin 3 receptor [7]
CC(C)C[C@H](CN)CC(=O)O [Pregabalin] | effective in cancer pain animal models | sedative effects such as dizziness, drowsiness, and loss of consciousness | suppresses the functions of the central nervous system (inhibits coordinated motor ability) at a dose lower than that is required to exert an analgesic effect |  |  |  |  |  |  | 
NC1CCN(c2cccc(Cl)n2)CC1 [compound A, 1-(6-chloropyridin-2-yl) piperidin-4-amine] |  |  |  | significant difference was observed; also recorded: significantly increased | no statistically significant difference | No statistical difference was observed; also recorded: no significant changes | does not suppress spontaneous locomotor activity | No statistically significant difference was observed; also recorded: no significant changes | does not suppress spontaneous locomotor activity or coordinated motor ability | serotonin 3 receptor agonist
